Measurements reported in patent US20240308960A1 (Sumitomo Pharma Co., Ltd., priority 2021, published 2024).

Target: T1, Human orexin receptor type 2 (Homo sapiens, UniProt O43614)
T1 sequence (O43614 1-444): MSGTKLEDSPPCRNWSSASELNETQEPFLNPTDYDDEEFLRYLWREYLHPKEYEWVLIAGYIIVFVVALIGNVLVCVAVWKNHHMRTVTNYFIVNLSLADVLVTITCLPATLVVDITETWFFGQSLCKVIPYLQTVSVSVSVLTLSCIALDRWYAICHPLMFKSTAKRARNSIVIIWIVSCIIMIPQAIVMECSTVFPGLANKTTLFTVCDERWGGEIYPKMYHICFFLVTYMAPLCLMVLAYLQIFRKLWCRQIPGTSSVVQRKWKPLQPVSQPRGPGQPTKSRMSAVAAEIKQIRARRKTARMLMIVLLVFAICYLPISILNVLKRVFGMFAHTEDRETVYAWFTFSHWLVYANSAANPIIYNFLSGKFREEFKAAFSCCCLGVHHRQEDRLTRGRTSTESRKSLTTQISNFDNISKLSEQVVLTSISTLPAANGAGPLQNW
Assay: Test Example 1: agonist activity for orexin receptor type 2 (aequorin luminescence, intracellular calcium mobilization)
Conditions: compound 10 μm; CHO cells transiently expressing human orexin receptor type 2 and apoaequorin; relative percentage of luminescence for the luminescence (100%) of Orexin A (100 μM)
Procedure: Human orexin receptor type 2 and apoaequorin were transiently expressed in CHO cells, and the agonist activity was evaluated based on intracellular calcium mobilization with ligand stimulation. The CHO cells transiently-expressed human orexin receptor type 2 and apoaequorin were seeded on a 384-well plate by 2,000 cells/well, and then incubated for 16-22 hours. After the plate was returned to room temperature, Coelenterazine hcp (final concentration: 1 μM) was added to the plate, and the plate was allowed to stand at room temperature for 2 hours. And then, Orexin A or each test compound was added to the plate, and the luminescence of the cells was measured with FDSS7000 (Hamamatsu Photonics K. K.), wherein Orexin A and each test compound were dissolved in DMSO (final concentration: 0.1%), and diluted with a buffer (Hanks, 20 mM HEPES, 0.1% BSA). The agonist activity of each test compound for orexin receptor type 2 was calculated as relative percentage of luminescence for the luminescence (100%) of Orexin A (100 μM).

Row | Compound | Agonist Activity (%)
1 | Cc1cc(C2(C)CCN(C(=O)Nc3c(F)cccc3N3CCN(C(C)C)CC3)CC2)no1 [Example 85, N-{2-fluoro-6-[4-(propan-2-yl)piperazin-1-yl]phenyl}-4-methyl-4-(5-methyl-1,2-oxazol-3-yl)piperidine-1-carboxamide] | 145%
2 | CC(C)N1CC=C(c2cccc(F)c2NC(=O)N2CCC(C)(c3noc(C4CC4)n3)CC2)CC1 [Example 44, 4-(5-cyclopropyl-1,2,4-oxadiazol-3-yl)-N-{2-fluoro-6-[1-(propan-2-yl)-1,2,3,6-tetrahydropyridin-4-yl]phenyl}-4-methylpiperidine-1-carboxamide] | 143%
3 | CC(C)N1CCN(c2cccc(Cl)c2NC(=O)N2CCC(C)(c3cc(C4CC4)on3)CC2)CC1 [Example 61, N-{2-chloro-6-[4-(propan-2-yl)piperazin-1-yl]phenyl}-4-(5-cyclopropyl-1,2-oxazol-3-yl)-4-methylpiperidine-1-carboxamide] | 156%
4 | Cc1ccc(C2CC3CCC(C2)N3C(=O)Nc2c(F)cccc2N2CCN(C(C)C)CC2)cc1 (stereo not drawn) [Example 41, N-{2-fluoro-6-[4-(propan-2-yl)piperazin-1-yl]phenyl}-3-(4-methylphenyl)-8-azabicyclo[3.2.1]octane-8-carboxamide] | 47%
5 | Cc1ccc(C23CCN(C(=O)Nc4ccccc4N4CCN(C(C)C)CC4)CC2C3)cc1 (stereo not drawn) [Example 14, 6-(4-methylphenyl)-N-{2-[4-(propan-2-yl)piperazin-1-yl]phenyl}-3-azabicyclo[4.1.0]heptane-3-carboxamide] | 126%
6 | Cc1ccc(C2CCN(C(=O)Nc3c(Cl)cccc3C3CCN(C(C)C)CC3)CC2)cc1 [Example 133, N-{2-chloro-6-[1-(propan-2-yl)piperidin-4-yl]phenyl}-4-(4-methylphenyl)piperidine-1-carboxamide] | 156%
7 | Cc1ccc(C2CCN(C(=O)Nc3c(F)cccc3C3=CCN(C(C)C)CC3)CC2)cc1 [Example 42, N-{2-fluoro-6-[1-(propan-2-yl)-1,2,3,6-tetrahydropyridin-4-yl]phenyl}-4-(4-methylphenyl)piperidine-1-carboxamide] | 128%
8 | CC(C)N1CCN(c2cccc(Cl)c2NC(=O)N2CCC(C)(c3noc(C(F)(F)F)n3)CC2)CC1 [Example 86, N-{2-chloro-6-[4-(propan-2-yl)piperazin-1-yl]phenyl}-4-methyl-4-[5-(trifluoromethyl)-1,2,4-oxadiazol-3-yl]piperidine-1-carboxamide] | 138%
9 | CCOc1cccc(C2CCN(C(C)CC)CC2)c1NC(=O)N1CCC(c2ccc(C)cc2)CC1 (stereo not drawn) [Example 128, N-{2-[1-(butan-2-yl)piperidin-4-yl]-6-ethoxyphenyl}-4-(4-methylphenyl)piperidine-1-carboxamide] | 136%
10 | Cc1cc(C2(C)CCN(C(=O)Nc3c(Cl)cccc3N3CCN(C(C)C)CC3)CC2)no1 [Example 84, N-{2-chloro-6-[4-(propan-2-yl)piperazin-1-yl]phenyl}-4-methyl-4-(5-methyl-1,2-oxazol-3-yl)piperidine-1-carboxamide] | 110%
11 | Cc1ccc(C2CCN(C(=O)Nc3c(F)cccc3N3C[C@H]4C[C@@H]3CN4C(C)C)CC2)cc1 [Example 151, N-{2-fluoro-6-[(1R,4R)-5-(propan-2-yl)-2,5-diazabicyclo[2.2.1]heptan-2-yl]phenyl}-4-(4-methylphenyl)piperidine-1-carboxamide] | 97%
12 | Cc1ccc(C2(C)CCN(C(=O)Nc3c(Cl)cccc3C3=CCN(C(C)C)CC3)CC2)cc1 [Example 147, N-{2-chloro-6-[1-(propan-2-yl)-1,2,3,6-tetrahydropyridin-4-yl]phenyl}-4-methyl-4-(4-methylphenyl)piperidine-1-carboxamide] | 167%
13 | Cc1ccc(C2(C)CCN(C(=O)Nc3c(Cl)cccc3C3CCN(C(C)C)CC3)CC2)cc1 [Example 148, N-{2-chloro-6-[1-(propan-2-yl)piperidin-4-yl]phenyl}-4-methyl-4-(4-methylphenyl)piperidine-1-carboxamide] | 176%
14 | Cc1ccc(C2CCN(C(=O)Nc3ccccc3N3CCN(C4CCOC4)CC3)CC2)cc1 (stereo not drawn) [Example 124, 4-(4-methylphenyl)-N-{2-[4-(oxolan-3-yl)piperazin-1-yl]phenyl}piperidine-1-carboxamide] | 27%
15 | CC(C)N1CCN(c2cccc(Cl)c2NC(=O)N2CCC(C)(c3noc(C4(F)CC4)n3)CC2)CC1 [Example 109, N-{2-chloro-6-[4-(propan-2-yl)piperazin-1-yl]phenyl}-4-[5-(1-fluorocyclopropyl)-1,2,4-oxadiazol-3-yl]-4-methylpiperidine-1-carboxamide] | 161%
16 | Cc1ccc(C2CCN(C(=O)Nc3c(F)cccc3C3CCN(C(C)CF)CC3)CC2)cc1 (stereo not drawn) [Example 137, N-{2-fluoro-6-[1-(1-fluoropropan-2-yl)piperidin-4-yl]phenyl}-4-(4-methylphenyl)piperidine-1-carboxamide] | 126%
17 | Cc1ccc(-c2cccc(F)c2NC(=O)N2CCC(C)(c3cc(C4CC4)on3)CC2)cn1 [Example 68, 4-(5-cyclopropyl-1,2-oxazol-3-yl)-N-[2-fluoro-6-(6-methylpyridin-3-yl)phenyl]-4-methylpiperidine-1-carboxamide] | 68%
18 | COc1cccc(N2CCN(C(C)C)CC2)c1NC(=O)N1CCC(C)(c2noc(C(C)C)n2)CC1 [Example 21, N-{2-methoxy-6-[4-(propan-2-yl)piperazin-1-yl]phenyl}-4-methyl-4-[5-(propan-2-yl)-1,2,4-oxadiazol-3-yl]piperidine-1-carboxamide] | 156%
19 | CCN1CCN(c2ccccc2NC(=O)N2CCC(c3ccc(OC)cc3)CC2)CC1 [Example 1, N-[2-(4-Ethylpiperazin-1-yl)phenyl]-4-(4-methoxyphenyl)piperidine-1-carboxamide] | 77%
20 | Cc1ccc(C2CCN(C(=O)Nc3ccccc3N3CCN(C)CC3)CC2)cc1 [Example 123, 4-(4-methylphenyl)-N-[2-(4-methylpiperazin-1-yl)phenyl]piperidine-1-carboxamide] | 105%
21 | CC(C)N1CCN(c2ccccc2NC(=O)N2CCC(c3ccccc3)CC2)CC1 [Example 7, 4-phenyl-N-{2-[4-(propan-2-yl)piperazin-1-yl]phenyl}piperidine-1-carboxamide] | 154%
22 | CC(C)N1CCN(c2cccc(Cl)c2NC(=O)N2CCC(C)(c3noc(C4CCCC4)n3)CC2)CC1 [Example 74, N-{2-chloro-6-[4-(propan-2-yl)piperazin-1-yl]phenyl}-4-(5-cyclopentyl-1,2,4-oxadiazol-3-yl)-4-methylpiperidine-1-carboxamide] | 145%
23 | CC(C)N1CCN(c2cccc(Cl)c2NC(=O)N2CCC(F)(c3noc(C4CC4)n3)CC2)CC1 [Example 94, N-{2-chloro-6-[4-(propan-2-yl)piperazin-1-yl]phenyl}-4-(5-cyclopropyl-1,2,4-oxadiazol-3-yl)-4-fluoropiperidine-1-carboxamide] | 179%
24 | Cc1nc(C2(C)CCN(C(=O)Nc3ccccc3N3CCN(C(C)C)CC3)CC2)no1 [Example 120, 4-methyl-4-(5-methyl-1,2,4-oxadiazol-3-yl)-N-{2-[4-(propan-2-yl)piperazin-1-yl]phenyl}piperidine-1-carboxamide] | 125%
25 | CC(C)N1CCN(c2cccc(F)c2NC(=O)N2CCC(C)(c3noc(C4CC(F)(F)C4)n3)CC2)CC1 [Example 75, 4-[5-(3,3-difluorocyclobutyl)-1,2,4-oxadiazol-3-yl]-N-{2-fluoro-6-[4-(propan-2-yl)piperazin-1-yl]phenyl}-4-methylpiperidine-1-carboxamide] | 131%
26 | Cc1ccc(C2CCN(C(=O)Nc3c(C(=O)N(C)C)cccc3N3CCN(C(C)C)CC3)CC2)cc1 [Example 33, N-{2-(dimethylcarbamoyl)-6-[4-(propan-2-yl)piperazin-1-yl]phenyl}-4-(4-methylphenyl)piperidine-1-carboxamide] | 150%
27 | CC(C)N1CCN(c2cccc(Cl)c2NC(=O)N2CCC(C)(c3noc(CC4CC4)n3)CC2)CC1 [Example 105, N-{2-chloro-6-[4-(propan-2-yl)piperazin-1-yl]phenyl}-4-[5-(cyclopropylmethyl)-1,2,4-oxadiazol-3-yl]-4-methylpiperidine-1-carboxamide] | 165%
28 | CC(C)c1ccc(-c2cccc(F)c2NC(=O)N2CCC(C)(c3noc(C4CC4)n3)CC2)cc1 [Example 65, 4-(5-cyclopropyl-1,2,4-oxadiazol-3-yl)-N-[3-fluoro-4′-(propan-2-yl) [1,1′-biphenyl]-2-yl]-4-methylpiperidine-1-carboxamide] | 93%
29 | CC(C)N1CCN(c2cccc(Cl)c2NC(=O)N2CCC(C)(c3noc(C4CC4)n3)CC2)CC1 [Example 67, N-{2-chloro-6-[4-(propan-2-yl)piperazin-1-yl]phenyl}-4-(5-cyclopropyl-1,2,4-oxadiazol-3-yl)-4-methylpiperidine-1-carboxamide] | 154%
30 | CC(C)N1CC=C(c2cccc(F)c2NC(=O)N2CCC(C)(c3nc4ccccc4o3)CC2)CC1 [Example 50, 4-(1,3-benzoxazol-2-yl)-N-{2-fluoro-6-[1-(propan-2-yl)-1,2,3,6-tetrahydropyridin-4-yl]phenyl}-4-methylpiperidine-1-carboxamide] | 187%
